Series [1] can be described thus: Solubility assessment in water. Conditions: water; 0.4 μg/ml at molecular weight 308; read-out: solubility, concentration. Format: physicochemical. As for the experimental part:
Water was added slowly to 4.7 mg of compound 5 until 4.7 ml of water was added at which point the phosphate fully dissolved. The pH of the solution was estimated using litmus paper and estimated to be <3. Without a counterion, the molecular weight of the phosphate is 418 m. Therefore, at 1 mg/ml, the concentration is 2.4 mM.
For comparison, compound 3 is soluble to 0.4 μg/ml (Han et al FASEB J. 2017 31(2):491-504), which at a molecular weight of 308 is 1.3 μM.
Compound 5 was suspended in water (at weight to give a final concentration of 10 mM) and then 2 eq NaHCO3 was added.

The conditions of series [2]: Han et al FASEB J. 2017; cited from earlier work.
The nature of series [3]: Levels of compound 3 and compound 5 in rabbit nasal lavage and serum after nasal administration of compound 5. The series is classed as in vivo. The method, then: Six (6) female NZW rabbits were employed in this study. Rabbits were obtained from Covance (Denver Pa.). Rabbits were between approximately 10 and 12 months of age at the time of study start. At time point 0, all animals received 50 μL of solution containing rabbit IL4 (RND Systems/Biotechne) and human IL13 (PreproTech) at a concentration of 0.25 mg/mL each in 0.5×PBS containing 12.5 mg/mL BSA per nostril. This was administered intranasally via a venous catheter attached to a micropipette. The animal was positioned in a supine manner and the venous catheter inserted into the nostril. The volume was introduced into the nasal cavity and the same procedure was repeated with the other nostril.
At the 2, 4, and 6 hour time points, animals in Group 1 (n=3) received 0.2 mL of vehicle (0.9% saline) per nostril and the animals in Group 2 (n=3) received 0.2 mL of compound 5 (10 mM) in vehicle per nostril. The dosing of vehicle and compound 5 proceed as follows: The animal was positioned in a supine manner in a restraint bag and a mucosal atomization device (MAD) attached to the pre-filled tuberculin syringe was inserted into the nostril and introduced into the nasal cavity. The same procedure was repeated with the other nostril.
At the 8 hour time point, all the nostrils of all animals were lavaged with 1 mL of 0.9% saline per nostril and the resulting fluid collected. Intranasal lavages were performed as follows: The animals were held sternally in a restraint bag with the head over the edge of the table and the rear of the animal elevated higher than the head. A flexible venous catheter was inserted in the nostril until resistance was felt. The 1 mL of saline was introduced through the catheter into the nasal cavity. The nasal lavage returned from the nostril was collected via a funnel into a conical tube and the approximate volume recorded. This procedure was repeated for the other nostril. The lavage was stored at approximately −70° C. until analysis. Following (<10 minutes) the 8 hour time point lavage, blood was collected from all animals, processed to serum, and frozen at approximately −70° C. until analysis.
Nasal lavage and serum samples were analyzed for the levels of compound 3 and compound 5. Frozen tissue samples were weighed (20-120 mg) and placed into 2 mL CK14 homogenizing tubes (Bertin) and 500 μL of methanol containing 1 mM butylated hydroxy toluene (BHT) and 1 mM tris(2-carboxyethyl)phosphine (TCEP) was added. The tubes were placed in a Precellys 24 tissue homogenizer (Bertin) and run at 6000 rpm six times for 20 seconds with a 10 second pause between cycles. The tubes containing the homogenized tissue were then placed in a microfuge and centrifuged for 5′ at 14,000 rpm to pellet any insoluble material. Compound 3 was quantified using LC-MS/MS (QTrap5500, Applied Biosystems). Q1/Q3 Masses: 306.00/135.00 using a deschloro derivative of compound 3 (lacking chlorine at 4 position of pyrazole ring) as an internal standard. The Q1/Q3 Masses are 272.00/101.00 Da for the internal standard. Compound 3 was extracted using liquid/liquid extraction with methanol as a diluent. […] Compound 5 was quantified using LC-MS/MS (QTrap5500, Applied Biosystems). […] Compound 5 was detected in the lavage samples from Group 2 animals (rabbit 1, rabbit 2, rabbit 3) and ranged in average concentration from 0.016 uM-0.35 uM. […]

Converted amounts (≈) assume the structure as drawn. Where two headings read alike, the source gives them in different places.

For `O=C(Nc1ccc(F)cc1Cl)c1n[nH]c(Cl)c1Cl` [compound 3, 4,5-dichloro-N-(2-chloro-4-fluorophenyl)-1H-pyrazole-3-carboxamide], the figures for the solubility in series [1] and in series [2] were 1.3 µM (≈ 0.401 µg/mL) and 0.4 µg/mL (≈ 1.3 µM), respectively. Besides, the concentration at 8 h in series [3] (female, NZW, rabbit, nasal lavage, other: intranasal (mucosal atomization device), rabbits dosed with compound 5, 0.2 mL of 10 mM per nostril at 2, 4, 6 hours, lavage at 8 hours, range over 3 rabbits, read-out: average concentration of compound 3 in nasal lavage (FIG. 8)) was 890 to 3100 nM. The “level in serum samples” value in series [3] (rabbits, intranasal compound 5 10 mM, blood after the 8 hour lavage) was “no quantifiable”.

Source of the values: US11116778B2, “Prodrugs of ALOX-15 inhibitors and methods of using the same” (EMPIRICO INC., priority 2019, dated 2021).
